Columns and labels:
[1] = test system: COLO 205 colorectal tumor cells; experiment: Tumor cell viability inhibition assay (CellTiter-Glo 2.0, 72 hours); format: cell-based; settings: COLO 205 cell viability
Experimental: The effect of compound treatment on COLO 205 tumor cell viability was assessed using cellular ATP quantification methods (Promega CellTiter-Glo® 2.0, G9241), as follows. Test compounds were prepared using 11-point, 4-fold serial dilutions in DMSO and 100 nL of diluted compounds were transferred to 384-well assay-ready plates. COLO 205 (ATCC, CCL-222) colorectal tumor cells were seeded to assay-ready plates in RPMI-1640 medium supplemented with 10% FBS at 1500 cells in a volume of 33.5 microliters per well. After 72 hours of compound treatment, cellular ATP was assessed by CellTiter-Glo® 2.0 Cell Viability Assay method, according to the manufacturer's instructions. Luminescence was measured using a Clariostar Plus microplate reader (BMG Labtech) or equivalent. After normalization to the average of DMSO control and maximum inhibition control wells, concentration-response data were plotted and standard 4-parameter curve fitting (PEI Signals) was utilized to determine IC50

human eIF4E protein = biological target: T1, human eIF4E protein (Homo sapiens, UniProt P06730); experiment: Biochemical competitive binding assay (TR-FRET competition, EDA-m7GDP-ATTO-647N probe); settings: read-out: hEIF4E TR-FRET IC50
T1 construct: purchased Novus NBP-45314
T1 sequence (P06730 whole entry): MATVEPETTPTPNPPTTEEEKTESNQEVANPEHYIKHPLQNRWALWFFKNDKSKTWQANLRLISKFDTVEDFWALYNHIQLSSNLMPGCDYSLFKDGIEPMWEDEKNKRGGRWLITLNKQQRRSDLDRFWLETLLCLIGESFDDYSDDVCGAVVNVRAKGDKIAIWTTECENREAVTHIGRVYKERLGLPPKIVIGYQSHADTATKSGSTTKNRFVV
Experimental: The potencies of compounds binding to human eIF4E protein were measured using a 384-well time-resolved fluorescence resonance energy transfer (TR-FRET) competition assay. The assay was performed in assay buffer containing 50 mM HTEPES pH 7.5, 100 mM KCl, 0.02% Tween-20, and 0.1 mg/mL bovine serum albumin (BSA). The reaction volume was 10 μL and each reaction contained 4 nM recombinant 6×HIS-tagged human EIF4E protein (Novus, NBP-45314), 5 nM EDA-m7GDP-ATTO-647N (Jena Bioscience, NU-827-647N), 2.5 nM Europium conjugated Anti-6×HIS antibody (PerkinElmer, AD0402) and varying concentrations of compound. The final DMSO concentration was […].
Compounds were prepared using 11-point, 4-fold serial dilutions in DMSO and 100 nL of diluted compounds were transferred to 384-well assay-ready plates. Recombinant human EIF4E protein at 2× final concentration (8 nM) was pre-incubated with Eu-anti-6×HIS antibody at 2× final concentration (5 nM) for 5 minutes, then 5 μL of the protein solution was added to assay-ready plates. The protein/compound mix was incubated for 15 minutes, after which 5 μL of a solution containing EDA-m7GDP-ATTO-647N probe at 2× final concentration (10 nM) was added. After a subsequent 15-minute incubation, time-resolved fluorescence of assay plates was measured using a Clariostar Plus microplate reader (BMG Labtech) and TR-FRET values were calculated by taking a ratio of the 665 to 620 wavelength signals. After normalization to the average of DMSO control and maximum inhibition control wells, concentration-response data were plotted and standard 4-parameter curve fitting (PEI Signals) was utilized to determine IC50 values.

Row | IC50 ([1]; Homo sapiens, COLO 205, 72 h) [µM] | IC50 (human eIF4E protein) [µM] | IC50 [1] [µM] | Structure (SMILES)
1 | 5 to 20 | < 0.1 | – | Cc1cc(-c2cc(Cl)ccc2OCCn2c(C)nc3c(c2=O)C[C@H](N2CCC(c4cnc(C(F)(F)F)nc4)CC2)CC3)c2scc(C(=O)O)c2n1 (single isomer, unassigned) [Compound 584]
2 | – | < 0.1 | > 20 | Cc1cc(-c2cc(Cl)ccc2OCCn2c(C)nc3c(c2=O)CC(N(C)Cc2ccc(=O)[nH]c2)CC3)c2scc(C(=O)O)c2n1 (single isomer, unassigned) [Compound 236]
3 | 5 to 20 | 0.1 to 0.5 | – | Cc1cc(-c2cc(Cl)ccc2OCCn2c(C)nc3c(c2=O)C[C@@H](N2CCCC(C)[C@@H]2C(F)(F)F)CC32CC2)c2scc(C(=O)O)c2n1 (single isomer, unassigned) [Compound 625]
4 | < 5 | < 0.1 | – | CO[C@H](C1CCN([C@@H]2CCc3nc(C)n(CCOc4ccc(Cl)cc4-c4cc(C)nc5c(C(=O)O)csc45)c(=O)c3C2)CC1)C(F)(F)F (single isomer, unassigned) [Compound 552]
5 | 5 to 20 | < 0.1 | – | COC1CCN([C@@H]2CCc3nc(C)n(CCOc4ccc(Cl)cc4-c4cc(C)nc5c(C(=O)O)csc45)c(=O)c3[C@@H]2C)CC1 (stereo in doubt) [Compound 103, 7-(5-chloro-2-(2-(6-(4-methoxypiperidin-1-yl)-2,5-dimethyl-4-oxo-5,6,7,8-tetrahydroquinazolin-3(4H)-yl)ethoxy)phenyl)-5-methylthieno[3,2-b]pyridine-3-carboxylic acid]
6 | < 5 | < 0.1 | – | CO[C@@H]1CCN([C@@H]2CCc3nc(C)n(CCOc4ccc(Cl)cc4-c4cc(C)nc5c(C(=O)O)csc45)c(=O)c3C2)CC1(C)C (single isomer, unassigned) [Compound 376]
7 | > 20 | < 0.1 | – | Cc1cc(-c2cc(Cl)ccc2OCCn2c(C)nc3c(c2=O)C[C@@H](N(C)[C@H]2CC[C@@](C)(O)C2)CC3)c2scc(C(=O)O)c2n1 (single isomer, unassigned) [Compound 184]
8 | < 5 | < 0.1 | – | Cc1cc(-c2cc(Cl)ccc2OCCn2c(C)nc3c(c2=O)C[C@@H](N2CCC(c4cc(F)cc(F)c4F)CC2)CC3)c2scc(C(=O)O)c2n1 (single isomer, unassigned) [Compound 574]
9 | < 5 | < 0.1 | – | Cc1cc(-c2cc(Cl)ccc2OCCn2c(C)nc3c(c2=O)C[C@H](N2CCC4(CC2)CC4(F)F)CC3)c2scc(C(=O)O)c2n1 (single isomer, unassigned) [Compound 390]
10 | < 5 | < 0.1 | – | Cc1cc(-c2cc(Cl)ccc2OCCn2c(C)nc3c(c2=O)C[C@H](N2CCC[C@H](C(F)(F)F)C2)CC3)c2scc(C(=O)O)c2n1 (single isomer, unassigned) [Compound 381]
11 | < 5 | < 0.1 | – | Cc1cc(-c2cc(Cl)ccc2OCCn2c(C)nc3c(c2=O)C[C@H](N2CCC[C@]4(C2)CC4(F)F)CC3)c2scc(C(=O)O)c2n1 (single isomer, unassigned) [Compound 137]
12 | < 5 | < 0.1 | – | Cc1cc(-c2cc(Cl)ccc2OCCn2c(C)nc3c(c2=O)C[C@@H](N2CCO[C@H](COC(F)(F)F)C2)CC3)c2scc(C(=O)O)c2n1 (single isomer, unassigned) [Compound 480]
13 | < 5 | < 0.1 | – | Cc1csc(C2CCN([C@H]3CCc4nc(C)n(CCOc5ccc(Cl)cc5-c5cc(C)nc6c(C(=O)O)csc56)c(=O)c4C3)CC2)n1 (single isomer, unassigned) [Compound 428]
14 | 5 to 20 | 0.1 to 0.5 | – | Cc1cc(-c2cc(Cl)ccc2OCCn2c(C)nc3c(c2=O)C[C@H](N2CCCC[C@@H]2C(F)(F)F)CC32CC2)c2scc(C(=O)O)c2n1 (single isomer, unassigned) [Compound 624]
15 | < 5 | < 0.1 | – | Cc1cc(-c2cc(Cl)ccc2OCCn2c(C)nc3c(c2=O)C[C@H](N2CC[C@H](OC(F)(F)F)C(C)(C)C2)CC3)c2scc(C(=O)O)c2n1 (single isomer, unassigned) [Compound 394]
16 | – | < 0.1 | < 5 | Cc1nc2c(c(=O)n1CC#Cc1ccc(Cl)cc1-c1ccnc3c(C(=O)O)csc13)CC(N1CCC(OC(F)(F)F)CC1)CC2 (single isomer, unassigned) [Compound 535]

Row | IC50 ([1]; Homo sapiens, COLO 205, 72 h) [µM] | IC50 (human eIF4E protein) [µM] | IC50 [1] [µM] | Structure (SMILES)
17 | < 5 | < 0.1 | – | Cc1cc(-c2cc(Cl)ccc2OCCn2c(C)nc3c(c2=O)C[C@@H](N2C[C@@H]4CC[C@H]2CC4OC(F)(F)F)CC32CC2)c2scc(C(=O)O)c2n1 (single isomer, unassigned) [Compound 605]
18 | < 5 | < 0.1 | – | Cc1cc(-c2cc(Cl)ccc2OCCn2c(C)nc3c(c2=O)C[C@@H](N2CCC(c4ccc(F)cc4F)CC2)CC3)c2scc(C(=O)O)c2n1 (single isomer, unassigned) [Compound 419]
19 | 5 to 20 | < 0.1 | – | Cc1cc(-c2cc(Cl)ccc2OCCn2c(C)nc3c(c2=O)C[C@H](N2CCC(c4cnn(C)c4)CC2)CC3)c2scc(C(=O)O)c2n1 (single isomer, unassigned) [Compound 426]
20 | < 5 | < 0.1 | – | CO[C@H]1CCN([C@@H]2CCc3nc(C)n(CCOc4ccc(Cl)cc4-c4cc(C)nc5c(C(=O)O)csc45)c(=O)c3C2)CC12CC2 (single isomer, unassigned) [Compound 520]
21 | > 20 | < 0.1 | – | Cc1cc(-c2cc(Cl)ccc2OCCn2c(C)nc3c(c2=O)CC(N2CCc4nc[nH]c4C2)CC3)c2scc(C(=O)O)c2n1 (stereo not shown) [Compound 155]
22 | < 5 | < 0.1 | – | Cc1cc(-c2cc(Cl)ccc2OCCn2c(C)nc3c(c2=O)C[C@H](N2CCCC[C@@H]2c2nccs2)CC3)c2scc(C(=O)O)c2n1 (single isomer, unassigned) [Compound 547]
23 | < 5 | < 0.1 | – | Cc1cc(-c2cc(Cl)ccc2OCCn2c(C)nc3c(c2=O)C[C@H](N2CC[C@@H](C(F)F)C2)CC3)c2scc(C(=O)O)c2n1 (single isomer, unassigned) [Compound 121]
24 | > 20 | 0.1 to 0.5 | – | Cc1cc(-c2cc(Cl)ccc2OCCn2c(C)nc3c(c2=O)C[C@@H](N2CCCC[C@@H]2c2nccs2)CC3)c2scc(C(=O)O)c2n1 (single isomer, unassigned) [Compound 549]
25 | < 5 | < 0.1 | – | Cc1cc(-c2cc(Cl)ccc2OCCn2c(C)nc3c(c2=O)C[C@H](N2CCC(Oc4ccc(F)cc4F)CC2)CC32CC2)c2scc(C(=O)O)c2n1 (single isomer, unassigned) [Compound 611]
26 | < 5 | < 0.1 | – | Cc1cc(-c2cc(Cl)ccc2OCCn2c(C)nc3c(c2=O)CC(N2CCC4(CN(CC(F)(F)F)CC(F)(F)C4)C2)CC3)c2scc(C(=O)O)c2n1 (single isomer, unassigned) [Compound 511]
27 | – | 0.1 to 0.5 | 5 to 20 | Cc1cc(-c2cc(Cl)ccc2C#CCn2c(C)nc3c(c2=O)CC(C)(N2CCCC4(C2)CC4(F)F)CC3)c2scc(C(=O)O)c2n1 (single isomer, unassigned) [Compound 612]
28 | – | < 0.1 | < 5 | COC1CCN(C2CCc3nc(C)n(CC#Cc4ccc(Cl)cc4-c4ccnc5c(C(=O)NS(C)(=O)=O)csc45)c(=O)c3C2)CC1 (single isomer, unassigned) [Compound 491]
29 | – | < 0.1 | < 5 | Cc1cc(-c2cc(Cl)ccc2OCCn2c(C)nc3c(c2=O)CC(N2CCC4(CC2)CN(CC(F)(F)F)CCO4)CC3)c2scc(C(=O)O)c2n1 (single isomer, unassigned) [Compound 518]
30 | < 5 | < 0.1 | – | Cc1cc(-c2cc(Cl)ccc2OCCn2c(C)nc3c(c2=O)C[C@@H](N2CCC(c4nccs4)CC2)CC3)c2scc(C(=O)O)c2n1 (single isomer, unassigned) [Compound 476]
31 | 5 to 20 | < 0.1 | – | Cc1cc(-c2cc(Cl)ccc2OCCn2c(C)nc3c(c2=O)CC(N2CC(F)(F)C(F)(F)C2)CC3)c2scc(C(=O)O)c2n1 (stereo not shown) [Compound 119]
32 | 5 to 20 | < 0.1 | – | Cc1cc(-c2cc(Cl)ccc2OCCn2c(C)nc3c(c2=O)CC(N2CCC(OC(F)(F)F)CC2)CC3)c2scc(C(=O)NS(=O)(=O)C(F)F)c2n1 (single isomer, unassigned) [Compound 416]

From patent publication US20240246918A1, “COMPOUNDS AND COMPOSITIONS AS EIF4E INHIBITORS AND THE USES THEREOF” (Ribometrix, Inc., priority 2022, published 2024)
